From BindingDB's records for patent US10202375 (Redx Pharma PLC, 2019)
“And” between values parts separate entries of the source, which are not always exact repeats. Equal values may be shown once.

The compounds below were run against Protein Wnt-3a (Mus musculus, UniProt P27467) (assay: Dual-Cell beta-Catenin Reporter Assay).
Procedure: Mouse L cells transfected to constitutively produce biologically active murine Wnt-3a, referred to as L-Wnt cells, were purchased from the American Type Culture Collection, ATCC, Manassas, Va. (ATCC). These cells were cultured in DMEM supplemented with 10% FCS (Gibco/Invitrogen, Carlsbad, Calif.), 1% geneticin and 1% sodium pyruvate (Sigma) at 37° C. with 5% CO2. The cells were seeded into 96 well plates and treated with serial dilutions of compound diluted to 0.1% DMSO concentration. After 24 hours, cell supernatants were transferred to a 96 well plate previously seeded with Leading Light Wnt Reporter Cells, stably transfected with a luciferase gene under control of Wnt pathway response elements. After a further 24 hours, cells are treated with One-glo luciferase assay system (Promega, Madison, Wis.) and the luminescent signal read by envision.

Sequence of Protein Wnt-3a (P27467 whole entry): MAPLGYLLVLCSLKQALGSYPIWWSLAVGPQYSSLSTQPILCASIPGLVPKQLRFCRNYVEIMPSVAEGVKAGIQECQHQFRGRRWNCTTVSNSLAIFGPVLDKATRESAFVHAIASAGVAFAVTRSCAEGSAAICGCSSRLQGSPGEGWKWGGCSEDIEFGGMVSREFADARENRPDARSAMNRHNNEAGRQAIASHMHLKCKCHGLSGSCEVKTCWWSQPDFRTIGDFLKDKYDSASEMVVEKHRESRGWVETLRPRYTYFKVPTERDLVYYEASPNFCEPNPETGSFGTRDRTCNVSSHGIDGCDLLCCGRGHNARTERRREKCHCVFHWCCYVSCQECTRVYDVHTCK

| SMILES | IC50 |
| --- | --- |
| Cc1cc(-c2nc(C)nc3c2ccn3CC(=O)Nc2ccc(-c3cnccn3)cn2)ccn1 [US10202375, Example 10] | < 1 nM and 0.32 nM |
| Cc1cc(-c2ccnc3c2cnn3CC(=O)Nc2ccc(-c3cnccn3)nc2)ccn1 [US10202375, Example 15] | 3 nM |
| Cc1cc(-c2nccc3c2ncn3CC(=O)Nc2ccc(-c3cnccn3)cn2)ccn1 [US10202375, Example 20] | 3 nM |
